Laboratory results as given in US20250084040A1, “SUBSTITUTED HETEROCYCLES AS c-MYC TARGETING AGENTS” (Northwestern University, priority 2018, published 2025).

Tested on: NCI 60 cell panel
Assay: NCI 60 Cell One-Dose Screen
Format: cell-based, human
Conditions: 1.00E−5 Molar
Method: General Description. As of early 2007 all compounds submitted to the NCI 60 Cell screen are tested initially at a single high dose (10^-5 M) in the full NCI 60 cell panel. Only compounds which satisfy pre-determined threshold inhibition criteria in a minimum number of cell lines will progress to the full 5-dose assay. The threshold inhibition criteria for progression to the 5-dose screen was selected to efficiently capture compounds with anti-proliferative activity based on careful analysis of historical DTP screening data. The threshold criteria may be updated as additional data becomes available.
Interpretation of One-Dose Data. The One-dose data will be reported as a mean graph of the percent growth of treated cells and will be similar in appearance to mean graphs from the 5-dose assay. The number reported for the One-dose assay is growth relative to the no-drug control, and relative to the time zero number of cells. This allows detection of both growth inhibition (values between 0 and 100) and lethality (values less than 0). This is the same as for the 5-dose assay, described below. For example, a value of 100 means no growth inhibition. A value of 40 would mean 60% growth inhibition. A value of 0 means no net growth over the course of the experiment. A value of −40 would mean 40% lethality. A value of −100 means all cells are dead. Information from the One-dose mean graph is available for COMPARE analysis.
The human tumor cell lines of the cancer screening panel are grown in RPMI 1640 medium containing 5% fetal bovine serum and 2 mM L-glutamine. For a typical screening experiment, cells are inoculated into 96 well microtiter plates in 100 μL at plating densities ranging from 5,000 to 40,000 cells/well depending on the doubling time of individual cell lines. After cell inoculation, the microtiter plates are incubated at […], 5% CO2, 95% air and 100% relative humidity for 24 h prior to addition of experimental drugs.
After 24 h, two plates of each cell line are fixed in situ with TCA, to represent a measurement of the cell population for each cell line at the time of drug addition (Tz). Experimental drugs are solubilized in dimethyl sulfoxide at 400-fold the desired final maximum test concentration and stored frozen prior to use. At the time of drug addition, an aliquot of frozen concentrate is thawed and diluted to twice the desired final maximum test concentration with complete medium containing 50 µg/ml gentamicin. Additional four, 10-fold or ½ log serial dilutions are made to provide a total of five drug concentrations plus control. Aliquots of 100 μl of these different drug dilutions are added to the appropriate microtiter wells already containing 100 μl of medium, resulting in the required final drug concentrations.
Following drug addition, the plates are incubated for an additional 48 h at 37° C., 5% CO2, 95% air, and 100% relative humidity. For adherent cells, the assay is terminated by the addition of cold TCA. Cells are fixed in situ by the gentle addition of 50 μl of cold 50% (w/v) TCA (final concentration, 10% TCA) and incubated for 60 minutes at 4° C. The supernatant is discarded, and the plates are washed five times with tap water and air dried. Sulforhodamine B (SRB) solution (100 μl) at 0.4% (w/v) in 1% acetic acid is added to each well, and plates are incubated for 10 minutes at room temperature. After staining, unbound dye is removed by washing five times with 1% acetic acid and the plates are air dried. Bound stain is subsequently solubilized with 10 mM trizma base, and the absorbance is read on an automated plate reader at a wavelength of 515 nm. For suspension cells, the methodology is the same except that the assay is terminated by fixing settled cells at the bottom of the wells by gently adding 50 μl of 80% TCA (final concentration, 16% TCA). […]

## Cn1nc(C(F)(F)F)cc1-c1ccc(OCc2ccc(Cl)cc2)c(-c2cc(C(F)(F)F)cc(C(F)(F)F)c2)c1O [NSC: D-795899/1]
786-0 (Renal Cancer)
  Growth Percent: 2.41%
A498 (Renal Cancer)
  Growth Percent: −26.88%
A549/ATCC (Non-Small Cell Lung Cancer)
  Growth Percent: 10.52%
ACHN (Renal Cancer)
  Growth Percent: 7.22%
BT-549 (Breast Cancer)
  Growth Percent: 2.72%
CCRF-CEM (Leukemia)
  Growth Percent: 6.82%
COLO 205 (Colon Cancer)
  Growth Percent: −90.71%
DU-145 (Prostate Cancer)
  Growth Percent: 20.58%
Delta of the mean graph
  Growth Percent, Delta: 89.50%
EKVX (Non-Small Cell Lung Cancer)
  Growth Percent: 7.70%
HCC-2998 (Colon Cancer)
  Growth Percent: 5.78%
HCT-15 (Colon Cancer)
  Growth Percent: 7.50%
HCT-116 (Colon Cancer)
  Growth Percent: 3.65%
HL-60(TB) (Leukemia)
  Growth Percent: −39.89%
HOP-62 (Non-Small Cell Lung Cancer)
  Growth Percent: −9.87%
HOP-92 (Non-Small Cell Lung Cancer)
  Growth Percent: −20.08%
HS 578T (Breast Cancer)
  Growth Percent: 4.39%
HT29 (Colon Cancer)
  Growth Percent: 3.77%
IGROV1 (Ovarian Cancer)
  Growth Percent: 31.40%
K-562 (Leukemia)
  Growth Percent: 1.63%
KM12 (Colon Cancer)
  Growth Percent: 5.04%
LOX IMVI (Melanoma)
  Growth Percent: 6.23%
M14 (Melanoma)
  Growth Percent: 6.30%
MALME-3M (Melanoma)
  Growth Percent: −15.91%
MCF7 (Breast Cancer)
  Growth Percent: 3.01%
MDA-MB-231/ATCC (Breast Cancer)
  Growth Percent: −31.51%
MDA-MB-435 (Melanoma)
  Growth Percent: 11.38%
MDA-MB-468 (Breast Cancer)
  Growth Percent: -5.00%
MOLT-4 (Leukemia)
  Growth Percent: −11.7%
Mean over the cell panel
  Growth Percent, Mean: -1.21%
NCI-H23 (Non-Small Cell Lung Cancer)
  Growth Percent: 0.56%
NCI-H226 (Non-Small Cell Lung Cancer)
  Growth Percent: 13.90%
NCI-H322M (Non-Small Cell Lung Cancer)
  Growth Percent: 5.67%
NCI-H460 (Non-Small Cell Lung Cancer)
  Growth Percent: −10.44%
NCI-H522 (Non-Small Cell Lung Cancer)
  Growth Percent: −9.19%
NCI/ADR-RES (Ovarian Cancer)
  Growth Percent: 1.98%
OVCAR-3 (Ovarian Cancer)
  Growth Percent: 7.02%
OVCAR-4 (Ovarian Cancer)
  Growth Percent: 20.71%
OVCAR-5 (Ovarian Cancer)
  Growth Percent: 29.10%
OVCAR-8 (Ovarian Cancer)
  Growth Percent: 8.36%
PC-3 (Prostate Cancer)
  Growth Percent: 10.73%
RPMI-8226 (Leukemia)
  Growth Percent: −14.54%
RXF 393 (Renal Cancer)
  Growth Percent: −14.51%
Range over the cell panel
  Growth Percent, Range: 122.11%
SF-268 (CNS Cancer)
  Growth Percent: 16.59%
SF-295 (CNS Cancer)
  Growth Percent: −22.60%
SF-539 (CNS Cancer)
  Growth Percent: 2.13%
SK-MEL-2 (Melanoma)
  Growth Percent: −33.97%
SK-MEL-28 (Melanoma)
  Growth Percent: 28.00%
SK-MIEL-5 (Melanoma)
  Growth Percent: −36.59%
SK-OV-3 (Ovarian Cancer)
  Growth Percent: −13.54%
SN12C (Renal Cancer)
  Growth Percent: 7.93%
SNB-19 (CNS Cancer)
  Growth Percent: 22.58%
SNB-75 (CNS Cancer)
  Growth Percent: 4.92%
SR (Leukemia)
  Growth Percent: −4.24%
SW-620 (Colon Cancer)
  Growth Percent: 13.14%
T-47D (Breast Cancer)
  Growth Percent: −11.64%
TK-10 (Renal Cancer)
  Growth Percent: 9.29%
U251 (CNS Cancer)
  Growth Percent: 6.17%
UACC-62 (Melanoma)
  Growth Percent: 3.02%
UACC-257 (Melanoma)
  Growth Percent: −7.16%
UO-31 (Renal Cancer)
  Growth Percent: −1.27%
